Seven compounds from patent US5698544A, “Cephem compound, process for producing the compound, and antimicrobial composition containing the same” (Otsuka Kagaku Kabushiki Kaisha, priority 1994, dated 1997) can be followed below.

One assay has as its system MRSA 92-1044. The assay is described as follows: Agar plate dilution assay (MIC), MRSA 92-1044. It is filed as cell-based, methicillin-resistant Staphylococcus aureus. Conditions: Staphylococcus aureus, inoculum size 10^6 cells/ml.
Another assay relates to S. aureus FDA 209-P. In words: Agar plate dilution assay (MIC), S. aureus FDA 209-P. It is filed as cell-based. Conditions: Staphylococcus aureus, FDA209, inoculum size 10^6 cells/ml.
The subject of another assay is E. coli NIHJ JC-2. In words: Agar plate dilution assay (MIC), E. coli NIHJ JC-2. The conditions noted are these: Escherichia coli, NIHJJC2, inoculum size 10^6 cells/ml. It is filed as cell-based.
The subject of the next assay is E. faecalis ATCC-21212. The assay is described as follows: Agar plate dilution assay (MIC), E. faecalis ATCC-21212. It is filed as cell-based. Conditions: Enterococcus faecalis, ATCC21212, inoculum size 10^6 cells/ml.
A further assay concerns S. marcescens IFO-12648. In words: Agar plate dilution assay (MIC), S. marcescens IFO-12648. It is filed as cell-based. Conditions: Serratia marcescens, IFO12648, inoculum size 10^6 cells/ml.

Values after ≈ are worked out from the molar mass of the structure shown.

Regarding `C[N+](C)(C)CC[n+]1ccc(SC=CC2=C(C(=O)O)N3C(=O)C(NC(=O)C(=NOC4CCCC4)c4csc(N)n4)C3SC2)cc1` (centres unmarked) [(a)], the MIC (commonly the least concentration at which growth counts as inhibited) with MRSA 92-1044 came out at 6.25 µg/mL; with S. aureus FDA 209-P it was 0.39 µg/mL; in the assay on E. coli NIHJ JC-2, 0.39 µg/mL; with E. faecalis ATCC-21212, 0.39 µg/mL; with S. marcescens IFO-12648 it was 3.13 µg/mL.

Turning to `C[N+](C)(C)CC[n+]1ccc(SC=CC2=C(C(=O)O)N3C(=O)C(NC(=O)C(=NO)c4csc(N)n4)C3SC2)cc1` (centres unmarked) [(b)], the MIC against MRSA 92-1044 is 1.56 µg/mL; against S. aureus FDA 209-P, 0.1 µg/mL; with E. coli NIHJ JC-2, 0.05 µg/mL; with E. faecalis ATCC-21212, 0.1 µg/mL; in the assay on S. marcescens IFO-12648 it was 0.1 µg/mL.

As for `C[N+](C)(CC[n+]1ccc(SC=CC2=C(C(=O)O)N3C(=O)C(NC(=O)C(=NO)c4csc(N)n4)C3SC2)cc1)CC(N)=O` (centres unmarked) [(c)], the MIC amounted to 1.56 µg/mL against MRSA 92-1044; 0.1 µg/mL in the assay on S. aureus FDA 209-P; 0.025 µg/mL in the assay on E. coli NIHJ JC-2; 0.1 µg/mL with E. faecalis ATCC-21212; 0.1 µg/mL against S. marcescens IFO-12648.

For `CC(=O)C[N+](C)(C)CC[n+]1ccc(SC=CC2=C(C(=O)O)N3C(=O)C(NC(=O)C(=NO)c4csc(N)n4)C3SC2)cc1` (centres unmarked) [(d)], the MIC with MRSA 92-1044 was 1.56 µg/mL; in the assay with S. aureus FDA 209-P it was 0.2 µg/mL; in the assay with E. coli NIHJ JC-2, 0.025 µg/mL; in the assay with E. faecalis ATCC-21212, 0.2 µg/mL; in the assay with S. marcescens IFO-12648, 0.2 µg/mL.

Take `C[N+](C)(CCO)CC[n+]1ccc(SC=CC2=C(C(=O)O)N3C(=O)C(NC(=O)C(=NO)c4csc(N)n4)C3SC2)cc1` (centres unmarked) [(e)]: the minimal inhibitory concentration (MIC) came to 1.56 µg/mL against MRSA 92-1044; 0.1 µg/mL in the assay on S. aureus FDA 209-P; 0.05 µg/mL against E. coli NIHJ JC-2; 0.1 µg/mL against E. faecalis ATCC-21212; 0.1 µg/mL against S. marcescens IFO-12648.

For the compound `C[N+]1(CC[n+]2ccc(SC=CC3=C(C(=O)O)N4C(=O)C(NC(=O)C(=NO)c5csc(N)n5)C4SC3)cc2)CCOCC1` (centres unmarked) [(f)], the MIC turned out to be 1.56 µg/mL against MRSA 92-1044; 0.1 µg/mL in the assay with S. aureus FDA 209-P; 0.025 µg/mL in the assay with E. coli NIHJ JC-2; 0.2 µg/mL in the assay on E. faecalis ATCC-21212; 0.1 µg/mL with S. marcescens IFO-12648.

Regarding `CO[C@@]1(NC(=O)CSC(F)F)C(=O)N2C(C(=O)O)=C(CSc3nnnn3CCO)CO[C@@H]21` [FMOX, flomoxef, reference compound], the MIC against MRSA 92-1044 is above 100 µg/mL; in the assay on S. aureus FDA 209-P, 0.2 µg/mL (≈ 0.403 µM); with E. coli NIHJ JC-2, 0.05 µg/mL (≈ 0.101 µM); with E. faecalis ATCC-21212 it was 100 µg/mL (≈ 201 µM); in the assay on S. marcescens IFO-12648 it was 0.2 µg/mL (≈ 0.403 µM).
